In US7488738B2, “Aminophenoxyacetic acid derivatives and pharmaceutical composition containing thereof” (Asubio Pharma Co., Ltd., priority 1998, dated 2009):

Tested on: cells of cerebral cortex
Experiment: Cytoprotective effect against glutamate induced cell death (MTT)
Type: cell-based, rats of Wister strain
Conditions: compound 1 μM added 24 h before 1 mM glutamate, fetal rat cerebral cortex cells, control group = 100%
Procedure: Biological Test 1: Cytoprotective Effect Against Glutamate Induced Cell Death
In accordance with the method of M. P. Mattoson [M. P. Mattoson, Brain Res. Rev., 13, 179 (1988)], brain of 18-days fetus rats of Wister strain were taken out. Then, cells of cerebral cortex (4×10^5 cells/ml) were seeded on poly-L-lysine coated 96 wells flat bottom plate (Sumitomo Bakelite Co., Ltd.) in concentration of 4×10^4 cells/each well. After 48 hours of incubation, 1 μM of test compounds were added, then after further 24 hours, 1 mM of glutamate were further added for inducing the cell injury. 12 hours after adding glutamate, MTT [3-(4,5-dimethylthiazol)-2,5-diphenyltetrazolium bromide] was added and incubated for 6 hours.
After incubation, 200 μl of dimethy sulfoxide was added to each wells, and the amounts of reduced MTT were calorimetrically analyzed by Micro ELISA Reader using 570 nm of main-wavelength and 650 nm of sub-wavelength.
The effect of the test compounds was determined as the survival rate of living cells (%) according to the following equation: Survival rate of living cells (%)=[(test compound group−glutamate treated group)÷(control group−glutamate treated group)]×100
That is, the survival rate of living cells after incubation of the control group was converted to 100%, and the survival data of living cells of the tested compounds was shown in Table II.

| Structure (SMILES) | Survival Rate (%) (Compound: 1 μM) |
| --- | --- |
| Cc1cc(OCC(=O)NC2CCN(CC(=O)Nc3ccccc3)CC2)c(C)c(C)c1N [Compound 85, 2-(4-Amino-2,3,5-trimethylphenoxy)-N-[1-(2-anilino-2-oxyethyl)-4-piperidinyl]acetamide] | 98 |
| Cc1cc(OCC(=O)N(C)C2CCN(CC(=O)Nc3cc(Cl)c(N)cc3Cl)CC2)c(C)c(C)c1N [Compound 89, 2-(4-Amino-2,3,5-trimethylphenoxy)-N-[1-(2-(4-amino-2,5-dichloro)anilino-2-oxyethyl)-4-piperidinyl]-N-methylacetamide] | 126 |
| Cc1cc(OC(C)(C)C(=O)N(C)C2CCN(CCc3ccccc3)CC2)c(C)c(C)c1N [Compound 38, 2-(4-Amino-2,3,5-trimethylphenoxy)-2-methyl-N-methyl-N-[1-(2-phenethyl)-4-piperidinyl]propamide] | 114 |
| Cc1cc(OC(C)(C)C(=O)N(C)C2CCN(CC3(c4ccccc4)CC3)CC2)c(C)c(C)c1N [Compound 68, 2-(4-Amino-2,3,5-trimethylphenoxy)-2-methyl-N-methyl-N-[1-(1-phenyl-1-cyclopropane)methyl-4-piperidinyl]propamide] | 75 |
| Cc1cc(OC(C)(C)C(=O)NC2CCN(C[C@@H]3C[C@H]3c3ccccc3)CC2)c(C)c(C)c1N (relative stereo) [Compound 99, 2-(4-Amino-2,3,5-trimethylphenoxy)-2-methyl-N-[1-(trans-2-phenyl-1-cyclopropylmethyl)-4-piperidinyl]propamide] | 151 |
| CCN(C(=O)C(C)Oc1cc(C)c(N)c(C)c1C)C1CCN(CC2(c3ccccc3)CC2)CC1 (stereo not drawn) [Compound 87, 2-(4-Amino-2,3,5-trimethylphenoxy)-N-ethyl-N-[1-(1-phenyl-1-cyclopropane)methyl-4-piperidinyl]propamide] | 81 |
| CCN(C(=O)C(C)Oc1cc(C)c(N)c(C)c1C)C1CCN(C/C=C/c2ccccc2)CC1 (stereo not drawn) [Compound 77, 2-(4-Amino-2,3,5-trimethylphenoxy)-N-ethyl-N-[1-(3-phenyl-2-(E)-propenyl)-4-piperidinyl]propamide] | 111 |
| Cc1cc(C)c(NCC(=O)N(C)C2CCN(CC(O)COc3ccccc3)CC2)c(C)c1N (stereo not drawn) [Compound 126, 2-(3-Amino-2,4,6-tirmethylanilino)-N-[1-(2-hydroxy-3-phenoxy)propyl-4-piperidinyl]-N-methylacetamide] | 47 |
| CCN(C(=O)COc1cc(C)c(N)c(C)c1C)C1CCN(CC(=O)Nc2ccccc2)CC1 [Compound 71, 2-(4-Amino-2,3,5-trimethylphenoxy)-N-[1-(2-anilino-2-oxyethyl)-4-piperidinyl]-N-ethylacetamide] | 89 |
| Cc1cc(OC(C)(C)C(=O)N(C)C2CCN(CC(=O)Nc3cc(Cl)c(N)cc3Cl)CC2)c(C)c(C)c1N [Compound 79, 2-(4-Amino-2,3,5-trimethylphenoxy)-2-methyl-N-[1-(2-(4-amino-2,5-dichloro)anilino-2-oxyethyl)-4-piperidinyl]-N-methylpropamide] | 79 |
| Cc1cc(OC(C)C(=O)NC2CCN(CC(=O)Nc3ccccc3)CC2)c(C)c(C)c1N (stereo not drawn) [Compound 83, 2-(4-Amino-2,3,5-trimethylphenoxy)-N-[1-(2-anilino-2-oxyethyl)-4-piperidinyl]propamide] | 65 |
| Cc1cc(OCC(=O)N(C)C2CCN(CC(=O)Nc3cccc(Cl)c3C)CC2)c(C)c(C)c1N [Compound 45, 2-(4-Amino-2,3,5-trimethylphenoxy)-N-[1-(2-(3-chloro-2-methyl)anilino-2-oxyethyl)-4-piperidinyl]-N-methylacetamide] | 190 |
| Cc1cc(OC(C)C(=O)N(C)C2CCN(CC(=O)Nc3c(C)cccc3C)CC2)c(C)c(C)c1N (stereo not drawn) [Compound 61, 2-(4-Amino-2,3,5-trimethylphenoxy)-N-[1-(2-(2,6-dimethylanilino)-2-oxyethyl)-4-piperidinyl]-N-methylpropamide] | 58 |
| Cc1cc(OC(C)(C)C(=O)NC2CCN(CC(=O)Nc3c(C)cccc3C)CC2)c(C)c(C)c1N [Compound 98, 2-(4-Amino-2,3-5-trimethylphenoxy)-2-methyl-N-[1-(2-(2,6-dimethylanilino)-2-oxyethyl)-4-piperidinyl]propamide] | 120 |
| Cc1cc(OC(C)(C)C(=O)NC2CCN(CC(=O)Nc3ccccc3)CC2)c(C)c(C)c1N [Compound 82, 2-(4-Amino-2,3,5-trimethylphenoxy)-2-methyl-N-[1-(2-anilino-2-oxyethyl)-4-piperidinyl]propamide] | 149 |
| Cc1cc(OC(C)C(=O)N(C)C2CCN(C/C=C/c3ccccc3)CC2)c(C)c(C)c1N (stereo not drawn) [Compound 62, 2-(4-Amino-2,3,5-trimethylphenoxy)-N-methyl-N-[1-(3-phenyl-2-(E)-propenyl)-4-piperidinyl]propamide] | 63 |
| CN(C(=O)CNc1cc(Cl)c(N)cc1Cl)C1CCN(CCc2ccccc2)CC1 [Compound 138, 2-(4-Amino-2,5-dichloroanilino)-N-methyl-N-[1-(2-phenethyl)-4-piperidinyl]acetamide] | 42 |
| Cc1cc(OC(C)(C)C(=O)NC2CCN(CC(=O)Nc3ccccc3C(C)(C)C)CC2)c(C)c(C)c1N [Compound 100, 2-(4-Amino-2,3,5-trimethylphenoxy)-2-methyl-N-[1-(2-(2-tert-butylanilino)-2-oxyethyl)-4-piperidinyl]propamide] | 138 |
| Cc1cc(OC(C)(C)C(=O)N(C)C2CCN(CC(=O)Nc3ccccc3C(C)(C)C)CC2)c(C)c(C)c1N [Compound 49, 2-(4-Amino-2,3,5-trimethylphenoxy)-2-methyl-N-[1-(2-tert-butylanilino-2-oxyethyl)-4-piperidinyl]-N-methylpropamide] | 193 |
| Cc1cc(OC(C)(C)C(=O)NC2CCN(C/C=C/c3ccccc3)CC2)c(C)c(C)c1N [Compound 80, 2-(4-Amino-2,3,5-trimethylphenoxy)-2-methyl-N-[1-(3-phenyl-2-(E)-propenyl)-4-piperidinyl]propamide] | 99 |
| Cc1cc(N)c(NCC(=O)N(C)C2CCN(C[C@@H]3C[C@H]3c3ccccc3)CC2)cc1C (relative stereo) [Compound 137, 2-(2-Amino-4-5-dimethylanilino)-N-methyl-N-[1-(trans-2-phenyl-1-cyclopropylmethyl)-4-piperidinyl]acetamide] | 71 |
| Cc1c(C)c(OCC(=O)NC2CCN(CC(=O)Nc3ccccc3)CC2)c(Cl)c(C)c1N [Compound 91, 2-(4-Amino-2-chloro-3,5,6-trimethylphenoxy)-N-[1-(2-anilino-2-oxyethyl)-4-piperidinyl]acetamide] | 203 |
| Cc1cc(OCC(=O)N(C)C2CCN(CC(O)COc3ccccc3)CC2)c(C)c(C)c1N (stereo not drawn) [Compound 65, 2-(4-Amino-2,3,5-trimethylphenoxy)-N-methyl-N-[1-(2-hydroxy-3-phenoxy)propyl-4-piperidinyl]acetamide] | 73 |

Same assay, conditions: compound 1 μM added 24 h before 1 mM glutamate, fetal rat cerebral cortex cells, control group = 100%, read-out: Survival Rate (%) (Compound: 1 μM)

| Structure (SMILES) | viability at 1 µM [%] |
| --- | --- |
| Cc1cc(OCC(=O)NC2CCN(C[C@@H]3C[C@H]3c3ccccc3)CC2)c(C)c(C)c1N (relative stereo) [Compound 95, 2-(4-Amino-2,3,5-trimethylphenoxy)-N-[1-(trans-2-phenyl-1-cyclopropylmethyl)-4-piperidinyl]acetamide] | 61 |
| Cc1cc(C)c(NCC(=O)N(C)C2CCN(S(=O)(=O)c3ccccc3)CC2)c(C)c1N [Compound 130, 2-(3-Amino-2,4,6-trimethylanilino)-N-methyl-N-[1-(phenylsulfonyl)-4-piperidinyl]acetamide] | 60 |
| Cc1cc(C)c(NCC(=O)N(C)C2CCN(Cc3ccc4ccccc4c3)CC2)c(C)c1N [Compound 133, 2-(3-Amino-2,4,6-trimethylanilino)-N-methyl-N-[1-(2-naphthyl)methyl-4-piperidinyl]acetamide] | 101 |
| CCN(C(=O)CNc1c(C)c(C)c(N)c(C)c1C)C1CCN(C[C@@H]2C[C@H]2c2ccccc2)CC1 (relative stereo) [Compound 94, 2-(4-Amino-2,3,5,6-tetramethylanilino)-N-ethyl-N-[1-(trans-2-phenyl-1-cyclopropylmethyl)-4-piperidinyl]acetamide] | 198 |
| CCN(C(=O)CNc1c(C)c(C)c(N)c(C)c1C)C1CCN(C/C=C/c2ccccc2)CC1 [Compound 78, 2-(4-Amino-2,3,5,6-tetramethylanilino)-N-ethyl-N-[1-(3-phenyl-2-(E)-propenyl)-4-piperidinyl]acetamide] | 96 |
| Cc1cc(OCC(=O)NC2CCN(C/C=C/c3ccccc3)CC2)c(C)c(C)c1N [Compound 86, 2-(4-Amino-2,3,5-trimethylphenoxy)-N-[1-(3-phenyl-2-(E)-propenyl)-4-piperidinyl]acetamide] | 127 |
| Cc1c(C)c(NCC(=O)N(C)C2CCN(Cc3ccccc3)CC2)c(C)c(C)c1N [Compound 110, 2-(4-Amino-2,3,5,6-tetramethylanilino)-N-(1-benzyl-4-piperidinyl]-N-methylacetamide] | 61 |
